From patent publication US9950073B2, “Peptide sequence design and use thereof for peptide-mediated siRNA delivery” (Positec Power Tools (Suzhou) Co Ltd, priority 2011, dated 2018)

Test system: siRNA
Experiment: Fluorescence spectroscopy of peptide-siRNA interaction
Format: binding
Procedure: The peptide C6M1 was used in this experiment to study the interaction between peptide and siRNA using fluorescence spectroscopy method. C6M1 has four tryptophan amino acids which can be used as fluorescence probe. […] A blue shift from 355 to 330 nm was also observed in molar ratios of less than 40:1, clearly at 20:1 and 10:1, probably due to the change in the environment of tryptophan by adding more hydrophilic siRNA molecules.
A similar experiment was also performed by tracking the fluorescence property of labeled siRNA, interacting with C6M1. […] The red shift could also be an indicator of a change in the siRNA environment and/or conformational change in siRNA structure upon interacting with peptides.

RLWRLLWRLWRRLWRLLR (C6M1)
tryptophan fluorescence intensity of C6M1 on adding siRNA (fixed C6M1 concentration, more siRNA added): intensity of fluorescence decreased
fluorescence spectra of labeled siRNA (low molar ratios of 2:1 and 4:1): no significant change
fluorescence intensity of labeled siRNA (molar ratios of 10:1 and 20:1): intensity decreased
blue shift of fluorescence (molar ratios of less than 40:1, clearly at 20:1 and 10:1): 355 to 330 nm
